According to US6358885B1, “Substituted phenylheterocyclic herbicides” (Mississippi State University, priority 1992, dated 2002):

Key:
Test in all cases: Test G preemergence/postemergence greenhouse plant response rating 0 to 100
[1] = tested on: sandbur; type: in vivo, Cenchrus echinatus; settings: 0 to 100 scale
Description: (§1) Seeds, rhizomes, or plant parts of alfalfa (Medicago ativa), annual bluegrass (Poa annua), bermudagrass (Cynodon dactylon), broadleaf signalgrass (Brachiaria plantaginea), common purslane (Portulaca oleracea), common ragweed (Ambrosia elatior), […] (Paspalum dilatatum), goosegrass (Eleusine indica), guineagrass (Panicum maximum), […] exaltata), johnsongrass (Sorghum halepense), large crabgrass (Digitaria sanguinalis), peanut (Arachis hypoagaea), pitted morningglory (Ipomoea lacunosa), purple nutsedge (Cyperus rotundus), sandbur (Cenchrus echinatus), smooth crabgrass (Digitaria ischaemum) and yellow nutsedge (Cyperus esculentus) were planted into greenhouse pots containing greenhouse planting medium. Each pot contained only one plant species. The test compound was dissolved in a non-phytotoxic solvent and applied preemergence and/or postemergence to the plants. Preemergence applications were made within one day of planting the seeds or plant parts. Postemergence applications were applied when the plants were in the two to four leaf stage (three to twenty cm). Test chemicals were dissolved in a non-phytotoxic solvent and applied preemergence and postemergence to the plants. Untreated control plants and treated plants were placed in the greenhouse and visually evaluated for injury at 13 to 21 days after herbicide application. […] A dash (-) response indicates no test result.

[2] = tested on: itchgrass; type: in vivo, Rottboellia exaltata; settings: 0 to 100 scale
Description: as §1

[3] = tested on: purple nutsedge; type: in vivo, Cyperus rotundus; settings: Rate 125 g/ha, 0 to 100 scale
Description: as §1

[4] = tested on: pitted morningglory; type: in vivo, Ipomoea lacunosa; settings: 0 to 100 scale
Description: as §1

[5] = tested on: bermudagrass; type: in vivo, Cynodon dactylon; settings: 0 to 100 scale
Description: as §1

[6] = tested on: common purslane; type: in vivo, Portulaca oleracea; settings: 0 to 100 scale
Description: as §1

[7] = tested on: smooth crabgrass; type: in vivo, Digitaria ischaemum; settings: 0 to 100 scale
Description: as §1

[8] = tested on: alfalfa; type: in vivo, Medicago ativa; settings: 0 to 100 scale
Description: as §1

[9] = tested on: goosegrass; type: in vivo, Eleusine indica; settings: 0 to 100 scale
Description: as §1

[10] = tested on: common ragweed; type: in vivo, Ambrosia elatior; settings: 0 to 100 scale
Description: as §1

[11] = tested on: johnsongrass; type: in vivo, Sorghum halepense; settings: 0 to 100 scale
Description: as §1

[12] = tested on: dallisgrass; type: in vivo, Paspalum dilatatum; settings: 0 to 100 scale
Description: as §1

[13] = tested on: annual bluegrass; type: in vivo, Poa annua; settings: 0 to 100 scale
Description: as §1

[14] = tested on: large crabgrass; type: in vivo, Digitaria sanguinalis; settings: 0 to 100 scale
Description: as §1

[15] = tested on: broadleaf signalgrass; type: in vivo, Brachiaria plantaginea; settings: 0 to 100 scale
Description: as §1

[16] = tested on: guineagrass; type: in vivo, Panicum maximum; settings: 0 to 100 scale
Description: as §1

## Fc1cc(Cl)c(OC2CCCC2)cc1-c1nn2c(c1Cl)CCCC2 [Compound 24]
[1]; POSTEMERGENCE, Rate 125 g/ha
  Plant response rating, S. Sandbur: 0
[1]; POSTEMERGENCE, Rate 250 g/ha
  Plant response rating, S. Sandbur: 0
[1]; PREEMERGENCE, Rate 125 g/ha
  Plant response rating, S. Sandbur: 40
[1]; PREEMERGENCE, Rate 250 g/ha
  Plant response rating, S. Sandbur: 0
[2]; POSTEMERGENCE, Rate 125 g/ha
  Plant response rating, Itchgrass: 0
[2]; POSTEMERGENCE, Rate 250 g/ha
  Plant response rating, Itchgrass: 0
[2]; PREEMERGENCE, Rate 125 g/ha
  Plant response rating, Itchgrass: 100
[2]; PREEMERGENCE, Rate 250 g/ha
  Plant response rating, Itchgrass: 20
[3]; POSTEMERGENCE
  Plant response rating, Purple Nutsedge: 0
[3]; PREEMERGENCE
  Plant response rating, Purple Nutsedge: 0
[4]; POSTEMERGENCE, Rate 125 g/ha
  Plant response rating, Pit Morninglory: 0
[4]; POSTEMERGENCE, Rate 250 g/ha
  Plant response rating, Pit Morninglory: 30
[4]; PREEMERGENCE, Rate 125 g/ha
  Plant response rating, Pit Morninglory: 0
[4]; PREEMERGENCE, Rate 250 g/ha
  Plant response rating, Pit Morninglory: 50
[5]; POSTEMERGENCE, Rate 125 g/ha
  Plant response rating, Bermudagrass: 0
[5]; POSTEMERGENCE, Rate 250 g/ha
  Plant response rating, Bermudagrass: 0
[5]; PREEMERGENCE, Rate 125 g/ha
  Plant response rating, Bermudagrass: 30
[5]; PREEMERGENCE, Rate 250 g/ha
  Plant response rating, Bermudagrass: 0
[6]; POSTEMERGENCE, Rate 125 g/ha
  Plant response rating, Cmn Purslane: 80
[6]; POSTEMERGENCE, Rate 250 g/ha
  Plant response rating, Cmn Purslane: 70
[6]; PREEMERGENCE, Rate 125 g/ha
  Plant response rating, Cmn Purslane: 0
[6]; PREEMERGENCE, Rate 250 g/ha
  Plant response rating, Cmn Purslane: 0
[7]; POSTEMERGENCE, Rate 125 g/ha
  Plant response rating, Smooth Crabgras: 0
[7]; POSTEMERGENCE, Rate 250 g/ha
  Plant response rating, Smooth Crabgras: 0
[7]; PREEMERGENCE, Rate 125 g/ha
  Plant response rating, Smooth Crabgras: 0
[7]; PREEMERGENCE, Rate 250 g/ha
  Plant response rating, Smooth Crabgras: 0
[8]; POSTEMERGENCE, Rate 125 g/ha
  Plant response rating, Alfalfa Var.: 0
[8]; POSTEMERGENCE, Rate 250 g/ha
  Plant response rating, Alfalfa Var.: 20
[8]; PREEMERGENCE, Rate 125 g/ha
  Plant response rating, Alfalfa Var.: 0
[8]; PREEMERGENCE, Rate 250 g/ha
  Plant response rating, Alfalfa Var.: 0
[9]; POSTEMERGENCE, Rate 125 g/ha
  Plant response rating, Goosegrass: 0
[9]; POSTEMERGENCE, Rate 250 g/ha
  Plant response rating, Goosegrass: 0
[9]; PREEMERGENCE, Rate 125 g/ha
  Plant response rating, Goosegrass: 90
[9]; PREEMERGENCE, Rate 250 g/ha
  Plant response rating, Goosegrass: 40
[10]; POSTEMERGENCE, Rate 125 g/ha
  Plant response rating, Cmn Ragweed: 50
[10]; POSTEMERGENCE, Rate 250 g/ha
  Plant response rating, Cmn Ragweed: 0
[10]; PREEMERGENCE, Rate 125 g/ha
  Plant response rating, Cmn Ragweed: 40
[10]; PREEMERGENCE, Rate 250 g/ha
  Plant response rating, Cmn Ragweed: 0
[11]; POSTEMERGENCE, Rate 125 g/ha
  Plant response rating, Johnsongrass: 0
[11]; POSTEMERGENCE, Rate 250 g/ha
  Plant response rating, Johnsongrass: 0
[11]; PREEMERGENCE, Rate 125 g/ha
  Plant response rating, Johnsongrass: 0
[11]; PREEMERGENCE, Rate 250 g/ha
  Plant response rating, Johnsongrass: 0
[12]; POSTEMERGENCE, Rate 125 g/ha
  Plant response rating, Dallisgrass: 0
[12]; POSTEMERGENCE, Rate 250 g/ha
  Plant response rating, Dallisgrass: 0
[12]; PREEMERGENCE, Rate 125 g/ha
  Plant response rating, Dallisgrass: 20
[12]; PREEMERGENCE, Rate 250 g/ha
  Plant response rating, Dallisgrass: 30
[13]; POSTEMERGENCE, Rate 125 g/ha
  Plant response rating, Ann Bluegrass: 0
[13]; POSTEMERGENCE, Rate 250 g/ha
  Plant response rating, Ann Bluegrass: 0
[13]; PREEMERGENCE, Rate 125 g/ha
  Plant response rating, Ann Bluegrass: 30
[13]; PREEMERGENCE, Rate 250 g/ha
  Plant response rating, Ann Bluegrass: 0
[14]; POSTEMERGENCE, Rate 125 g/ha
  Plant response rating, Large Crabgrass: 0
[14]; POSTEMERGENCE, Rate 250 g/ha
  Plant response rating, Large Crabgrass: 0
[14]; PREEMERGENCE, Rate 125 g/ha
  Plant response rating, Large Crabgrass: 80
[14]; PREEMERGENCE, Rate 250 g/ha
  Plant response rating, Large Crabgrass: 90
[15]; POSTEMERGENCE, Rate 125 g/ha
  Plant response rating, Brdlf Sgnlgrass: 0
[15]; POSTEMERGENCE, Rate 250 g/ha
  Plant response rating, Brdlf Sgnlgrass: 0
[15]; PREEMERGENCE, Rate 125 g/ha
  Plant response rating, Brdlf Sgnlgrass: 100
[15]; PREEMERGENCE, Rate 250 g/ha
  Plant response rating, Brdlf Sgnlgrass: 0
[16]; POSTEMERGENCE, Rate 125 g/ha
  Plant response rating, Guineagrass: 0
[16]; POSTEMERGENCE, Rate 250 g/ha
  Plant response rating, Guineagrass: 0
[16]; PREEMERGENCE, Rate 125 g/ha
  Plant response rating, Guineagrass: 0
[16]; PREEMERGENCE, Rate 250 g/ha
  Plant response rating, Guineagrass: 0
